Measured values published in patent publication US9788539B2, “Platelet protection solution having beta-galactosidase and sialidase inhibitors” (Velico Medical, Inc., priority 2011, dated 2017).

Test system: bacteria
Experiment: Bacterial detection in stored platelet concentrate with SLP reagent, time of color detection (TOCD)
Type: cell-based
Details: for time of color detection (TOCD): 1 mM DANA
Method: To increase the formation of planktonic bacteria, thereby improving the sensitivity of the bacterial detection, platelet storage studies were performed in a mixture of PAS (INTERSOL® solution) and plasma (80:20). Many bacterial detection methods are available. We used SLP Reagent Set (297-51501, Wako Chemicals USA), containing silkworm larvae plasma (SLP) and […] (DOPA), reconstituted according to manufacturer's instruction and stored as 100 μL aliquots at -80° C. When a sample is mixed with SLP reagent, peptidoglycan derived from the cell wall of Gram-positive and Gram-negative bacteria in the sample initiates a series of reactions including activation of multiple serine proteases called prophenoloxidase (proPO) cascade. The phenoloxidase (PO) produced in the cascade reactions oxidizes the substrate in the SLP reagent, […] (DOPA), to form melain (dark blue). The bacteria concentration in the test sample is inversely proportional to the onset time of color development: shorter time=higher concentration of bacteria; longer time=lower concentration of bacteria.
One bag of a platelet concentrate was split to two 50-mL Falcon tubes, PGE1 was added. After centrifugation at 900×g for 10 min, 80% of the supernatant (PPP) (relative to the total volume) was removed, and replaced with equal volume of platelet protection solution. The platelet was thoroughly re-suspended. The platelet suspensions were pooled and split to 4 aliquots in 15-mL Falcon tubes. DANA (1 mM) in PBS was added to two tubes while only PBS was added to the other tubes. One pair of samples with and without DANA was stored at 4° C. The second pair was kept at RT (22° C.-24° C.). Aliquots of 1.0 mL were removed on Day 0 and Day 9, and immediately pelleted (5 min, 15,800×g). […]
The pellet containing both platelets and bacteria, recovered from 1-mL aliquots sampled at different time points, was re-suspended in 100 μL of 0.1 M NaOH, and heated for 10 min at 70° C. […] The samples were left on the bench, and color development was monitored. The time of color detection (TOCD) was recorded.

Q: CC(=O)NC1C(O)C=C(C(=O)O)OC1C(O)C(O)CO (stereo not drawn) [DANA] was tested. Which “bacterial growth in RT stored platelet samples” value (DANA, compared with 4° C. storage) did it give?
A: The value was “inhibits bacterial growth as effectively as 4° C.-storage”.

Q: And the “time of color detection (TOCD)” value (Day 9, stored at 4° C.)?
A: The value was roughly 50 min.

Q: What about the “time of color detection (TOCD)” value (Day 9, stored at RT, INTERSOL/plasma 80:20 (15 min without DANA)) of the same compound?
A: Its value is roughly 34 min.
